Test results reported in ChEMBL document CHEMBL3407482, “Synthesis and assessment of the antioxidant and antitumor properties of asymmetric curcumin analogues” (Eur J Med Chem, 2015).

Columns and labels:
[1] = Antioxidant activity assessed as DPPH radical scavenging activity by spectrophotometry; assay type: physicochemical
[2] = Antioxidant activity assessed as ABTS radical scavenging activity by spectrophotometry; assay type: physicochemical
[3] = Antioxidant activity assessed as ROO. radical scavenging activity by TRAP assay; assay type: physicochemical
[4] = Antioxidant activity assessed as superoxide radical scavenging activity after 5 mins by nitrotetrazolium blue chloride assay; assay type: physicochemical
[5] = Antiproliferative activity against human SMMC7721 cells after 72 hrs by MTT assay; assay type: functional, cell-based; details: SMMC-7721, 72 h
MCF7 [6] = assay: Antiproliferative activity against human MCF7 cells after 72 hrs by MTT assay; assay type: functional, cell-based; details: MCF7, 72 h
[7] = Antiproliferative activity against human PC3 cells after 72 hrs by MTT assay; assay type: functional, cell-based; details: PC-3, 72 h
[8] = Drug metabolism in rat plasma after 24 hrs by HPLC analysis; assay type: ADME, cell-free; details: read-out: Drug metabolism
SMMC-7721 = assay: Ratio of curcumin IC50 to compound IC50 for human SMMC7721 cells after 72 hrs by MTT assay; assay type: functional
MCF7 [9] = assay: Ratio of curcumin IC50 to compound IC50 for human MCF7 cells after 72 hrs by MTT assay; assay type: functional
PC-3 = assay: Ratio of curcumin IC50 to compound IC50 for human PC3 cells after 72 hrs by MTT assay; assay type: functional
Plasma = assay: Stability in rat plasma after 24 hrs by HPLC analysis; assay type: ADME, cell-free

| SMILES | IC50 [1] | IC50 [2] | IC50 [3] | IC50 [4] | IC50 [5] | IC50 (MCF7 [6]) | IC50 [7] | metabolised at 24 h [8] | Ratio IC50 (SMMC-7721) | Ratio IC50 (MCF7 [9]) | Ratio IC50 (PC-3) | Stability (Plasma) |
| --- | --- | --- | --- | --- | --- | --- | --- | --- | --- | --- | --- | --- |
| COc1cc(/C=C/C(=O)/C=C/c2ccc(O)c(OC)c2)ccc1O | 9.24 µM | 30.2 µM | 44.5 µM | 72.6 µM | 18.4 µM | 22.5 µM | 36.3 µM | 11.9% | 1.6 | 1.6 | 1.6 | – |
| CCOc1cc(/C=C/C(=O)/C=C/c2ccc(O)c(OCC)c2)ccc1O | 50.1 µM | 128 µM | 128 µM | 193 µM | 19 µM | 26.6 µM | 51.4 µM | – | – | – | – | – |
| COc1cc(/C=C/C(=O)/C=C/c2ccc(C)c(C)c2)ccc1O | 41.5 µM | 103 µM | 136 µM | 178 µM | 23.4 µM | 21.7 µM | – | – | – | – | – | – |
| COc1ccc(/C=C/C(=O)/C=C/c2cc(OC)c(OC)c(OC)c2)cc1O | 34.4 µM | 99.5 µM | 118 µM | 164 µM | 11.5 µM | 40.3 µM | 34.9 µM | – | – | – | – | – |
| COc1ccc(/C=C/C(=O)/C=C/c2ccc(O)c(OC)c2)cc1O | 46.3 µM | 105 µM | 123 µM | 169 µM | 21.6 µM | 56.5 µM | 61.3 µM | – | – | – | – | – |
| COc1cc(/C=C/C(=O)/C=C/c2cc(OC)c(O)c(OC)c2)ccc1O | 28.7 µM | 85.7 µM | 96.4 µM | 124 µM | 15.1 µM | 28.9 µM | 70.2 µM | – | – | – | – | – |
| CCOc1cc(/C=C/C(=O)/C=C/c2ccc(O)c(OC)c2)ccc1O | 31.6 µM | 80.6 µM | 97.2 µM | 122 µM | 27.3 µM | 41.9 µM | 82.4 µM | – | – | – | – | Unstable |
| COc1ccc(O)c(/C=C/C(=O)/C=C/c2ccc(C)c(C)c2)c1 | 203 µM | 132 µM | 286 µM | 207 µM | 23.4 µM | 33.3 µM | 45.5 µM | – | – | – | – | Unstable |
| COc1ccc(O)c(/C=C/C(=O)/C=C/c2ccc(OC)c(OC)c2)c1 | 94.2 µM | 292 µM | 182 µM | 231 µM | 20.8 µM | 22.2 µM | 31.6 µM | – | – | – | – | Unstable |
| COc1ccc(O)c(/C=C/C(=O)/C=C/c2cc(OC)c(OC)c(OC)c2)c1 | 94.6 µM | 114 µM | 184 µM | 214 µM | 25.3 µM | 40.7 µM | 39.9 µM | – | – | – | – | – |
| COc1cc(/C=C/C(=O)/C=C/c2ccc(C)c(C)c2)cc(OC)c1O | 32.6 µM | 113 µM | 113 µM | 156 µM | 13.6 µM | 52.8 µM | 25.3 µM | – | – | – | – | – |
| COc1ccc(/C=C/C(=O)/C=C/c2cc(OC)c(O)c(OC)c2)cc1OC | 13.5 µM | 36.3 µM | 47.8 µM | 80.9 µM | 24.1 µM | 9.11 µM | 36.9 µM | – | – | – | – | – |
| COc1ccc(/C=C/C(=O)/C=C/c2ccc(OC)c(OC)c2)cc1OC | > 5630 µM | > 5630 µM | > 5630 µM | > 5630 µM | 14.4 µM | 39.9 µM | 21.4 µM | – | – | – | – | – |
| COc1cc(/C=C/C(=O)/C=C/c2cc(OC)c(OC)c(OC)c2)cc(OC)c1OC | > 4820 µM | > 4820 µM | > 4820 µM | > 4820 µM | 16.6 µM | 13.9 µM | 42.1 µM | – | – | – | – | Unstable |
| COc1ccc(/C=C/C(=O)/C=C/c2ccc(OC)c(O)c2)cc1O | 92 µM | 177 µM | 193 µM | 204 µM | 9.68 µM | 70.4 µM | 97.3 µM | – | – | – | – | – |
| COc1cc(/C=C/C(=O)/C=C/c2cc(OC)c(OC)c(OC)c2)cc(OC)c1O | 28.1 µM | 75.1 µM | 70 µM | 117 µM | 10.9 µM | 43.6 µM | 23.7 µM | – | – | – | – | – |
| COc1ccc(/C=C/C(=O)/C=C/c2ccc(OC)c(OC)c2)cc1O | 19.7 µM | 91.3 µM | 82 µM | 119 µM | 39.4 µM | 67.1 µM | 53.1 µM | – | – | – | – | – |
| O=C1O[C@H]([C@@H](O)CO)C(O)=C1O [ASCORBIC ACID] | 45.4 µM | 105 µM | 102 µM | 167 µM | – | – | – | – | – | – | – | – |
| COc1cc(/C=C/C(=O)CC(=O)/C=C/c2ccc(O)c(OC)c2)ccc1O [CURCUMIN] | 13.5 µM | 48.6 µM | 54.4 µM | 89.8 µM | 39.4 µM | 70.2 µM | 59 µM | 55.3% | – | – | – | – |
